Measurements as given in PMC8286840, “Identifying SARS-CoV-2 antiviral compounds by screening for small molecule inhibitors of Nsp3 papain-like protease” (Biochemical Journal, 2021).
Structures can show the parent of a compound that is named as a salt. Where two headings read alike, the source gives them in different places.

How the values were obtained:
[1] = biological target: T1, SARS-CoV-2 PLpro (nsp3 1564–1878) (Severe acute respiratory syndrome coronavirus 2, UniProt P0DTD1); assay: biochemical; parameters: FRET-quenched peptide (Pro3) cleavage by PLpro, 10 min pre-incubation, slope over 20 min, normalised to no-compound control; settings: high concentration screen, read-out: % of control remaining
[2] = biological target: T1, SARS-CoV-2 PLpro (nsp3 1564–1878); assay: biochemical; parameters: FRET-quenched peptide (Pro3) cleavage by PLpro, 10 min pre-incubation, slope over 20 min, normalised to no-compound control; settings: low concentration screen, read-out: % of control remaining

For `CC(Oc1c(Cl)cccc1Cl)C1=NCCN1` (centres unmarked) [Lofexidine.HCl], which remaining activity at 3.75 µM ([1]; Well no.=1971) is on record?
Its remaining activity at 3.75 µM is 102%.

What about the remaining activity at 1.25 µM ([2]; Well no.=1971) of the same molecule?
Its remaining activity at 1.25 µM is 101%.

Which remaining activity at 3.75 µM ([1]; Well no.=929) does the source give for `CCn1cc(C(=O)O)c(=O)c2cc(F)c(N3CCNC(C)C3)c(F)c21` (centres unmarked) [Lomefloxacin hydrochloride] here?
The remaining activity at 3.75 µM was 94.8%.

And the remaining activity at 1.25 µM ([2]; Well no.=929)?
The remaining activity at 1.25 µM was 98.7%.

With `CCn1cc(C(=O)O)c(=O)c2cc(F)c(N3CCNC(C)C3)c(F)c21` (centres unmarked) [Lomefloxacin] as the molecule, how does the remaining activity at 3.75 µM ([1]; Well no.=2272) read?
Its remaining activity at 3.75 µM is 96.1%.

What about the remaining activity at 1.25 µM ([2]; Well no.=2272) of the same molecule?
The remaining activity at 1.25 µM was 95.3%.

What does the source list for `Nc1nc(OCc2cc(Br)cs2)c2[nH]cnc2n1` [Lomeguatrib]?
remaining activity at 3.75 µM ([1]; Well no.=5885): 105%; remaining activity at 1.25 µM ([2]; Well no.=5885): 105%

For `COc1ccc(CN2CCN(C(c3ccc(F)cc3)c3ccc(F)cc3)CC2)c(OC)c1OC` [Lomerizine], which remaining activity at 3.75 µM ([1]; Well no.=1941) is on record?
The remaining activity at 3.75 µM was 100%.

What about the remaining activity at 1.25 µM ([2]; Well no.=1941) of the same molecule?
Its remaining activity at 1.25 µM is 98.3%.

For `O=C(NC1CCN(CCCCC2(C(=O)NCC(F)(F)F)c3ccccc3-c3ccccc32)CC1)c1ccccc1-c1ccc(C(F)(F)F)cc1` [Lomitapide], which remaining activity at 3.75 µM ([1]; Well no.=8672) is on record?
The remaining activity at 3.75 µM was 93.5%.

And the remaining activity at 1.25 µM ([2]; Well no.=8672)?
Its remaining activity at 1.25 µM is 93.8%.

Which remaining activity at 3.75 µM ([1]; Well no.=1551) does the source give for `COC(=O)c1ccc(O)c2nc3c(C=O)c(O)cc(O)c3nc12` [Lomofungin] here?
Its remaining activity at 3.75 µM is 102%.

What about the remaining activity at 1.25 µM ([2]; Well no.=1551) of the same molecule?
Its remaining activity at 1.25 µM is 102%.

What does the source list for `NC(=O)N1CCC(CC(=O)N2CCC([C@H]3c4ncc(Br)cc4CCc4cc(Cl)cc(Br)c43)CC2)CC1` [Lonafarnib (SCH66336)]?
remaining activity at 3.75 µM ([1]; Well no.=4781): 101%; remaining activity at 1.25 µM ([2]; Well no.=4781): 105%

`O=C(O)c1nn(Cc2ccc(Cl)cc2Cl)c2ccccc12` [Lonidamine] was tested. Which remaining activity at 3.75 µM ([1]; Well no.=1121) did it give?
The remaining activity at 3.75 µM was 97%.

And the remaining activity at 1.25 µM ([2]; Well no.=1121)?
Its remaining activity at 1.25 µM is 92.8%.

For `CN(C)C(=O)C(CCN1CCC(O)(c2ccc(Cl)cc2)CC1)(c1ccccc1)c1ccccc1` [Loperamide (hydrochloride)], which remaining activity at 3.75 µM ([1]; Well no.=7427) is on record?
The remaining activity at 3.75 µM was 101%.

And the remaining activity at 1.25 µM ([2]; Well no.=7427)?
Its remaining activity at 1.25 µM is 97.7%.

For `CN(C)C(=O)C(CCN1CCC(O)(c2ccc(Cl)cc2)CC1)(c1ccccc1)c1ccccc1` [Loperamide hydrochloride], which remaining activity at 3.75 µM ([1]; Well no.=1073) is on record?
Its remaining activity at 3.75 µM is 98.4%.

And the remaining activity at 1.25 µM ([2]; Well no.=1073)?
Its remaining activity at 1.25 µM is 94.7%.

Which results are given for `CN(C)C(=O)C(CCN1CCC(O)(c2ccc(Cl)cc2)CC1)(c1ccccc1)c1ccccc1` [Loperamide.HCl]?
remaining activity at 3.75 µM ([1]; Well no.=1597): 104%; remaining activity at 1.25 µM ([2]; Well no.=1597): 104%

Which results are given for `Cc1cccc(C)c1OCC(=O)N[C@@H](Cc1ccccc1)[C@@H](O)C[C@H](Cc1ccccc1)NC(=O)[C@H](C(C)C)N1CCCNC1=O` [Lopinavir]?
remaining activity at 3.75 µM ([1]; Well no.=9076): 84.3%; remaining activity at 1.25 µM ([2]; Well no.=9076): 83.9%

For `CCOC(=O)N1CCC(=C2c3ccc(Cl)cc3CCc3cccnc32)CC1` [Loratadine], which remaining activity at 3.75 µM ([1]; Well no.=933) is on record?
Its remaining activity at 3.75 µM is 98.6%.

And the remaining activity at 3.75 µM ([1]; Well no.=2274)?
Its remaining activity at 3.75 µM is 89.3%.

What about the remaining activity at 3.75 µM ([1]; Well no.=7337) of the same molecule?
The remaining activity at 3.75 µM was 102%.

What about the remaining activity at 1.25 µM ([2]; Well no.=933) of the same molecule?
The remaining activity at 1.25 µM was 96.2%.

What about the remaining activity at 1.25 µM ([2]; Well no.=2274) of the same molecule?
The remaining activity at 1.25 µM was 89.1%.

And the remaining activity at 1.25 µM ([2]; Well no.=7337)?
Its remaining activity at 1.25 µM is 98.6%.

How did the remaining activity at 3.75 µM ([1]; Well no.=6954) turn out when `C[C@H]1CNCCc2ccc(Cl)cc21` [Lorcaserin (Hydrochloride)] was run?
Its remaining activity at 3.75 µM is 93.7%.

What about the remaining activity at 1.25 µM ([2]; Well no.=6954) of the same molecule?
The remaining activity at 1.25 µM was 99.1%.

With `C[C@H]1CNCCc2ccc(Cl)cc21` [Lorcaserin HCl] as the molecule, how does the remaining activity at 3.75 µM ([1]; Well no.=4742) read?
Its remaining activity at 3.75 µM is 102%.

What about the remaining activity at 1.25 µM ([2]; Well no.=4742) of the same molecule?
The remaining activity at 1.25 µM was 102%.

What does the source list for `CCCCCN(CCCCC)C(=O)C(CCC(=O)O)NC(=O)c1ccc(Cl)c(Cl)c1` (centres unmarked) [Lorglumide sodium]?
remaining activity at 3.75 µM ([1]; Well no.=820): 99.3%; remaining activity at 1.25 µM ([2]; Well no.=820): 102%

How did the remaining activity at 3.75 µM ([1]; Well no.=2276) turn out when `CCCCCN(CCCCC)C(=O)C(CCC(=O)O)NC(=O)c1ccc(Cl)c(Cl)c1` (centres unmarked) [Lorglumide] was run?
The remaining activity at 3.75 µM was 98.3%.

And the remaining activity at 1.25 µM ([2]; Well no.=2276)?
Its remaining activity at 1.25 µM is 96.2%.

How did the remaining activity at 3.75 µM ([1]; Well no.=8239) turn out when `CCCCc1nc(Cl)c(CO)n1Cc1ccc(-c2ccccc2-c2nnn[nH]2)cc1` [Losartan (potassium)] was run?
Its remaining activity at 3.75 µM is 104%.

And the remaining activity at 1.25 µM ([2]; Well no.=8239)?
The remaining activity at 1.25 µM was 101%.

With `CCCCc1nc(Cl)c(CO)n1Cc1ccc(-c2ccccc2-c2nnn[nH]2)cc1` [Losartan potassium] as the molecule, how does the remaining activity at 3.75 µM ([1]; Well no.=2278) read?
The remaining activity at 3.75 µM was 95.8%.

What about the remaining activity at 1.25 µM ([2]; Well no.=2278) of the same molecule?
Its remaining activity at 1.25 µM is 94.3%.

For `CCOC(=O)O[C@]1(C(=O)OCCl)CC[C@H]2[C@@H]3CCC4=CC(=O)C=C[C@]4(C)[C@H]3[C@@H](O)C[C@@]21C` [Loteprednol Etabonate], which remaining activity at 3.75 µM ([1]; Well no.=4618) is on record?
The remaining activity at 3.75 µM was 103%.

What about the remaining activity at 3.75 µM ([1]; Well no.=6459) of the same molecule?
Its remaining activity at 3.75 µM is 97.6%.

What about the remaining activity at 1.25 µM ([2]; Well no.=4618) of the same molecule?
Its remaining activity at 1.25 µM is 98%.

And the remaining activity at 1.25 µM ([2]; Well no.=6459)?
Its remaining activity at 1.25 µM is 99.9%.

For `CN1CCN(C2=Nc3ccccc3Oc3ccc(Cl)cc32)CC1` [Loxapine (succinate)], which remaining activity at 3.75 µM ([1]; Well no.=6172) is on record?
The remaining activity at 3.75 µM was 87.5%.

What about the remaining activity at 1.25 µM ([2]; Well no.=6172) of the same molecule?
The remaining activity at 1.25 µM was 93.4%.

How did the remaining activity at 3.75 µM ([1]; Well no.=1125) turn out when `CN1CCN(C2=Nc3ccccc3Oc3ccc(Cl)cc32)CC1` [Loxapine succinate] was run?
The remaining activity at 3.75 µM was 89.7%.

And the remaining activity at 1.25 µM ([2]; Well no.=1125)?
Its remaining activity at 1.25 µM is 93.3%.

What does the source list for `CN1CCN(C2=Nc3ccccc3Oc3ccc(Cl)cc32)CC1` [Loxapine]?
remaining activity at 3.75 µM ([1]; Well no.=6371): 102%; remaining activity at 1.25 µM ([2]; Well no.=6371): 99.7%

Which results are given for `CCCCCN(CCCOC)C(=O)C(CCC(=O)O)NC(=O)c1ccc(Cl)c(Cl)c1` (centres unmarked) [Loxiglumide]?
remaining activity at 3.75 µM ([1]; Well no.=8483): 95%; remaining activity at 1.25 µM ([2]; Well no.=8483): 94.1%

For `NC(=O)[C@@H]1CCCC[C@@H]1C(=O)Nc1ccc(Cl)c(Cl)c1` [Lu AF21934], which remaining activity at 3.75 µM ([1]; Well no.=8529) is on record?
The remaining activity at 3.75 µM was 104%.

What about the remaining activity at 1.25 µM ([2]; Well no.=8529) of the same molecule?
Its remaining activity at 1.25 µM is 104%.

Which results are given for `CCCCN(CCCC)CC(O)c1cc(Cl)cc2c1-c1ccc(Cl)cc1/C2=C/c1ccc(Cl)cc1` (centres unmarked) [Lumefantrine]?
remaining activity at 3.75 µM ([1]; Well no.=5499): 108%; remaining activity at 1.25 µM ([2]; Well no.=5499): 102%

`OC[C@@H]1CCCN2CCCC[C@H]12` [Lupinine] was tested. Which remaining activity at 3.75 µM ([1]; Well no.=3609) did it give?
The remaining activity at 3.75 µM was 107%.

What about the remaining activity at 1.25 µM ([2]; Well no.=3609) of the same molecule?
Its remaining activity at 1.25 µM is 104%.

Which results are given for `O=C1[C@@H]2[C@H]3CC[C@H](C3)[C@@H]2C(=O)N1C[C@@H]1CCCC[C@H]1CN1CCN(c2nsc3ccccc23)CC1` [Lurasidone HCl]?
remaining activity at 3.75 µM ([1]; Well no.=4891): 98%; remaining activity at 1.25 µM ([2]; Well no.=4891): 99.3%

`O=c1cc(-c2ccc(O)c(O[C@@H]3O[C@H](CO)[C@@H](O)[C@H](O)[C@H]3O)c2)oc2cc(O[C@@H]3O[C@H](CO)[C@@H](O)[C@H](O)[C@H]3O)cc(O)c12` [Luteolin-3',7-diglucoside] was tested. Which remaining activity at 3.75 µM ([1]; Well no.=3309) did it give?
The remaining activity at 3.75 µM was 95.6%.

And the remaining activity at 1.25 µM ([2]; Well no.=3309)?
Its remaining activity at 1.25 µM is 97.1%.

For `O=c1cc(-c2ccc(O)c(O)c2)oc2cc(O)cc(O)c12` [Luteolin], which remaining activity at 3.75 µM ([1]; Well no.=837) is on record?
The remaining activity at 3.75 µM was 102%.

What about the remaining activity at 3.75 µM ([1]; Well no.=3318) of the same molecule?
Its remaining activity at 3.75 µM is 98.3%.

And the remaining activity at 1.25 µM ([2]; Well no.=837)?
The remaining activity at 1.25 µM was 96.9%.

And the remaining activity at 1.25 µM ([2]; Well no.=3318)?
The remaining activity at 1.25 µM was 97.2%.

Which remaining activity at 3.75 µM ([1]; Well no.=5524) does the source give for `CC(=O)NCCc1c(Cc2ccccc2)[nH]c2ccccc12` [Luzindole] here?
The remaining activity at 3.75 µM was 96.8%.

And the remaining activity at 1.25 µM ([2]; Well no.=5524)?
Its remaining activity at 1.25 µM is 92.5%.

For `O[C@H]1[C@H]2c3cc4c(cc3CN3CCC(=C[C@@H]1O)[C@H]23)OCO4` [Lycorine], which remaining activity at 3.75 µM ([1]; Well no.=3379) is on record?
Its remaining activity at 3.75 µM is 99.5%.

And the remaining activity at 1.25 µM ([2]; Well no.=3379)?
The remaining activity at 1.25 µM was 99.9%.
